Laboratory results reported in the supplement of paper PMC11451515.

Legend:
Details in all cases: 48 h
NOMO1 [1] = assay: cell viability relative to DMSO control; higher = less cytotoxic
How it was run: (§1)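 NOMO1 or SEM cells were plated at 500 cells/well and P12-Ichikawa cells at 1000 cells/well in 1536-well plates (5 μl), after each leukemia line had been adapted for at least four passages in each medium. Pin dosing delivered library compounds in DMSO at 11 threefold concentrations, 47 μM to 0.79 nM. CellTiter-Glo One luminescence was read after 48 h at 37°C. Viability is reported as a per-plate percentage of DMSO wells, with cell-free wells as background.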

P12-Ichikawa [2] = assay: as above
How it was run: as §1

SEM cells [3] = assay: as above
How it was run: as §1

NOMO1 [4] = assay: AUC of viability dose-response curve (% viability x log10 dose units); higher = less sensitive
How it was run: (§2)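 Leukemia cells adapted to each medium (500 or 1000 cells/well, 1536-well plates) were exposed to library compounds in DMSO for 48 h at 37°C at 11 threefold doses, 47 μM to 0.79 nM. Luminescence by CellTiter-Glo One was normalised per plate to DMSO and cell-free wells, then fitted with a four-parameter log-logistic curve on log10 dose. Curves above full viability were scaled and quality-control failures removed before area under the curve was integrated by trapezoidal rule.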

P12-Ichikawa [5] = assay: as above
How it was run: as §2

SEM cells [6] = assay: as above
How it was run: as §2

[7] = HPLM + 10% dialyzed FBS, 0.000781 µM
[8] = HPLM + 10% dialyzed FBS, 0.00234 µM
[9] = HPLM + 10% dialyzed FBS, 0.00702 µM
[10] = HPLM + 10% dialyzed FBS, 0.0211 µM
[11] = HPLM + 10% dialyzed FBS, 0.0632 µM
[12] = HPLM + 10% dialyzed FBS, 0.19 µM
[13] = HPLM + 10% dialyzed FBS, 0.569 µM
[14] = HPLM + 10% dialyzed FBS, 1.71 µM
[15] = HPLM + 10% dialyzed FBS, 5.12 µM
[16] = HPLM + 10% dialyzed FBS, 15.4 µM
[17] = HPLM + 10% dialyzed FBS, 46.1 µM
[18] = RPMI 5 mM glucose + 10% FBS, 0.000781 µM
[19] = RPMI 5 mM glucose + 10% FBS, 0.00234 µM
[20] = RPMI 5 mM glucose + 10% FBS, 0.00702 µM
[21] = RPMI 5 mM glucose + 10% FBS, 0.0211 µM
[22] = RPMI 5 mM glucose + 10% FBS, 0.0632 µM
[23] = RPMI 5 mM glucose + 10% FBS, 0.19 µM
[24] = RPMI 5 mM glucose + 10% FBS, 0.569 µM
[25] = RPMI 5 mM glucose + 10% FBS, 1.71 µM
[26] = RPMI 5 mM glucose + 10% FBS, 5.12 µM
[27] = RPMI 5 mM glucose + 10% FBS, 15.4 µM
[28] = RPMI 5 mM glucose + 10% FBS, 46.1 µM
[29] = RPMI 5 mM glucose + 10% dialyzed FBS, 0.000781 µM
[30] = RPMI 5 mM glucose + 10% dialyzed FBS, 0.00234 µM
[31] = RPMI 5 mM glucose + 10% dialyzed FBS, 0.00702 µM
[32] = RPMI 5 mM glucose + 10% dialyzed FBS, 0.0211 µM
[33] = RPMI 5 mM glucose + 10% dialyzed FBS, 0.0632 µM
[34] = RPMI 5 mM glucose + 10% dialyzed FBS, 0.19 µM
[35] = RPMI 5 mM glucose + 10% dialyzed FBS, 0.569 µM
[36] = RPMI 5 mM glucose + 10% dialyzed FBS, 1.71 µM
[37] = RPMI 5 mM glucose + 10% dialyzed FBS, 5.12 µM
[38] = RPMI 5 mM glucose + 10% dialyzed FBS, 15.4 µM
[39] = RPMI 5 mM glucose + 10% dialyzed FBS, 46.1 µM
[40] = RPMI 5 mM glucose + 10% dialyzed FBS

CCc1cncnc1N1CCN(Cc2nc3cc(C(F)(F)F)ccc3[nH]2)CC1
cell viability (NOMO1 [1]; [7]): 105%
cell viability (NOMO1 [1]; [8]): 114%
cell viability (NOMO1 [1]; [9]): 114%
cell viability (NOMO1 [1]; [10]): 98.5%
cell viability (NOMO1 [1]; [11]): 108%
cell viability (NOMO1 [1]; [12]): 97.7%
cell viability (NOMO1 [1]; [13]): 97.6%
cell viability (NOMO1 [1]; [14]): 94%
cell viability (NOMO1 [1]; [15]): 107%
cell viability (NOMO1 [1]; [16]): 92%
cell viability (NOMO1 [1]; [17]): 64.2%
cell viability (NOMO1 [1]; [18]): 95.4%
cell viability (NOMO1 [1]; [19]): 87.8%
cell viability (NOMO1 [1]; [20]): 99.5%
cell viability (NOMO1 [1]; [21]): 93.1%
cell viability (NOMO1 [1]; [22]): 90.8%
cell viability (NOMO1 [1]; [23]): 93.4%
cell viability (NOMO1 [1]; [24]): 90.1%
cell viability (NOMO1 [1]; [25]): 90.1%
cell viability (NOMO1 [1]; [26]): 81.3%
cell viability (NOMO1 [1]; [27]): 79.9%
cell viability (NOMO1 [1]; [28]): 74.7%
cell viability (NOMO1 [1]; [29]): 95.8%
cell viability (NOMO1 [1]; [30]): 82.6%
cell viability (NOMO1 [1]; [31]): 93.8%
cell viability (NOMO1 [1]; [32]): 100%
cell viability (NOMO1 [1]; [33]): 95.3%
cell viability (NOMO1 [1]; [34]): 85.5%
cell viability (NOMO1 [1]; [35]): 88.8%
cell viability (NOMO1 [1]; [36]): 97.4%
cell viability (NOMO1 [1]; [37]): 88.6%
cell viability (NOMO1 [1]; [38]): 75.8%
cell viability (NOMO1 [1]; [39]): 70.3%
cell viability (P12-Ichikawa [2]; [7]): 103%
cell viability (P12-Ichikawa [2]; [8]): 106%
cell viability (P12-Ichikawa [2]; [9]): 100%
cell viability (P12-Ichikawa [2]; [10]): 102%
cell viability (P12-Ichikawa [2]; [11]): 103%
cell viability (P12-Ichikawa [2]; [12]): 102%
cell viability (P12-Ichikawa [2]; [13]): 94.1%
cell viability (P12-Ichikawa [2]; [14]): 97.9%
cell viability (P12-Ichikawa [2]; [15]): 85.7%
cell viability (P12-Ichikawa [2]; [16]): 84%
cell viability (P12-Ichikawa [2]; [17]): 58%
cell viability (P12-Ichikawa [2]; [18]): 101%
cell viability (P12-Ichikawa [2]; [19]): 97.6%
cell viability (P12-Ichikawa [2]; [20]): 95.2%
cell viability (P12-Ichikawa [2]; [21]): 97.2%
cell viability (P12-Ichikawa [2]; [22]): 101%
cell viability (P12-Ichikawa [2]; [23]): 88.8%
cell viability (P12-Ichikawa [2]; [24]): 97.2%
cell viability (P12-Ichikawa [2]; [25]): 101%
cell viability (P12-Ichikawa [2]; [26]): 88.1%
cell viability (P12-Ichikawa [2]; [27]): 74.9%
cell viability (P12-Ichikawa [2]; [28]): 44.9%
cell viability (P12-Ichikawa [2]; [29]): 96.6%
cell viability (P12-Ichikawa [2]; [30]): 105%
cell viability (P12-Ichikawa [2]; [31]): 102%
cell viability (P12-Ichikawa [2]; [32]): 103%
cell viability (P12-Ichikawa [2]; [33]): 95.6%
cell viability (P12-Ichikawa [2]; [34]): 97.3%
cell viability (P12-Ichikawa [2]; [35]): 96.4%
cell viability (P12-Ichikawa [2]; [36]): 101%
cell viability (P12-Ichikawa [2]; [37]): 86.5%
cell viability (P12-Ichikawa [2]; [38]): 84.7%
cell viability (P12-Ichikawa [2]; [39]): 55.3%
cell viability (SEM cells [3]; [7]): 107%
cell viability (SEM cells [3]; [8]): 104%
cell viability (SEM cells [3]; [9]): 111%
cell viability (SEM cells [3]; [10]): 101%
cell viability (SEM cells [3]; [11]): 106%
cell viability (SEM cells [3]; [12]): 105%
cell viability (SEM cells [3]; [13]): 105%
cell viability (SEM cells [3]; [14]): 97.1%
cell viability (SEM cells [3]; [15]): 88.2%
cell viability (SEM cells [3]; [16]): 62.4%
cell viability (SEM cells [3]; [17]): 35.5%
cell viability (SEM cells [3]; [18]): 93.8%
cell viability (SEM cells [3]; [19]): 109%
cell viability (SEM cells [3]; [20]): 106%
cell viability (SEM cells [3]; [21]): 99.9%
cell viability (SEM cells [3]; [22]): 101%
cell viability (SEM cells [3]; [23]): 108%
cell viability (SEM cells [3]; [24]): 96.2%
cell viability (SEM cells [3]; [25]): 94.7%
cell viability (SEM cells [3]; [26]): 84.3%
cell viability (SEM cells [3]; [27]): 62%
cell viability (SEM cells [3]; [28]): 23.7%
cell viability (SEM cells [3]; [29]): 73.3%
cell viability (SEM cells [3]; [30]): 112%
cell viability (SEM cells [3]; [31]): 111%
cell viability (SEM cells [3]; [32]): 109%
cell viability (SEM cells [3]; [33]): 103%
cell viability (SEM cells [3]; [34]): 105%
cell viability (SEM cells [3]; [35]): 81.2%
cell viability (SEM cells [3]; [36]): 98.2%
cell viability (SEM cells [3]; [37]): 84.4%
cell viability (SEM cells [3]; [38]): 60.8%
cell viability (SEM cells [3]; [39]): 22.1%
AUC of viability dose-response curve (NOMO1 [4]; HPLM + 10% dialyzed FBS): 462
AUC of viability dose-response curve (NOMO1 [4]; RPMI 5 mM glucose + 10% FBS): 425
AUC of viability dose-response curve (NOMO1 [4]; [40]): 426
AUC of viability dose-response curve (P12-Ichikawa [5]; HPLM + 10% dialyzed FBS): 445
AUC of viability dose-response curve (P12-Ichikawa [5]; RPMI 5 mM glucose + 10% FBS): 437
AUC of viability dose-response curve (P12-Ichikawa [5]; [40]): 451
AUC of viability dose-response curve (SEM cells [6]; HPLM + 10% dialyzed FBS): 429
AUC of viability dose-response curve (SEM cells [6]; RPMI 5 mM glucose + 10% FBS): 425
AUC of viability dose-response curve (SEM cells [6]; [40]): 426
